Laboratory results taken from patent US9371331B2, “Modulators of methyl modifying enzymes, compositions and uses thereof” (Constellation Pharmaceuticals, Inc., priority 2012, dated 2016).
Like-named read-outs stand apart in the source and are kept apart here.

How the values were obtained:
EZH2 (rPRC2) = EZH2 (rPRC2) (Homo sapiens, UniProt Q15910); experiment: EZH2 assay: rPRC2, biotinylated oligonucleosomes, 3H SAM methyl transfer (FlashPlate scintillation); format: biochemical; details: biotinylated oligonucleosome substrate
Chain of EZH2 (rPRC2) (Q15910 whole entry): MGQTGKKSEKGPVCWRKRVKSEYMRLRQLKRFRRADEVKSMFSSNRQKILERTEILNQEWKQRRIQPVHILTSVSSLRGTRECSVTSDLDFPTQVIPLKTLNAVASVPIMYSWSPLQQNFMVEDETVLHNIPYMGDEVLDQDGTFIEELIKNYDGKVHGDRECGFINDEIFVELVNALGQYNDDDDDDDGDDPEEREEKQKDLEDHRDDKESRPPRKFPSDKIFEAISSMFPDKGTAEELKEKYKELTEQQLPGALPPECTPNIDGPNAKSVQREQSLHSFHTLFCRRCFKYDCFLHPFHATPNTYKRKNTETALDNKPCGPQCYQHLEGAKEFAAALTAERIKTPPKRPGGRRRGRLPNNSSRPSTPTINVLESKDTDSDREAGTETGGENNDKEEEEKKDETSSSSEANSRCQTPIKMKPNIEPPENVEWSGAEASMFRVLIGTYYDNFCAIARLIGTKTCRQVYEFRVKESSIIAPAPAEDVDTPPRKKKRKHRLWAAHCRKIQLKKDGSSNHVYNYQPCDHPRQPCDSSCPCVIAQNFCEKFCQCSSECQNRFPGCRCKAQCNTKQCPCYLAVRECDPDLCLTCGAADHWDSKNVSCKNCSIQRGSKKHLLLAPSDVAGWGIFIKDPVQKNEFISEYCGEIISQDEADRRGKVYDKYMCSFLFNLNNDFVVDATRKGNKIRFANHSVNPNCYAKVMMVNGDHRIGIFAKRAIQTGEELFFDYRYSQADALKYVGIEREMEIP
Chain of EZH2 (rPRC2) (O75530 whole entry partner): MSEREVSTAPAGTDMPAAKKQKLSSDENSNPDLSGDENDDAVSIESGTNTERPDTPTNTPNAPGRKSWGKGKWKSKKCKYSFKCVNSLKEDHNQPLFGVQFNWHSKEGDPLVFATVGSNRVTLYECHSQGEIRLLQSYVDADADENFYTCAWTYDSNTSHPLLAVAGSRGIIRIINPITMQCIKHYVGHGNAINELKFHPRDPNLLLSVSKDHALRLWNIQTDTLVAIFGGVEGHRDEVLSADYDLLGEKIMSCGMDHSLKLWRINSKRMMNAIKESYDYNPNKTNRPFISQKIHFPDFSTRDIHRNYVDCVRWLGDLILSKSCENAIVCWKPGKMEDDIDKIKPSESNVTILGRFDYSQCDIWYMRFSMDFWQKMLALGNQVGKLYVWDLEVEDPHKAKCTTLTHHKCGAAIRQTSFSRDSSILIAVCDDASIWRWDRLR
Chain of EZH2 (rPRC2) (Q15022 whole entry partner): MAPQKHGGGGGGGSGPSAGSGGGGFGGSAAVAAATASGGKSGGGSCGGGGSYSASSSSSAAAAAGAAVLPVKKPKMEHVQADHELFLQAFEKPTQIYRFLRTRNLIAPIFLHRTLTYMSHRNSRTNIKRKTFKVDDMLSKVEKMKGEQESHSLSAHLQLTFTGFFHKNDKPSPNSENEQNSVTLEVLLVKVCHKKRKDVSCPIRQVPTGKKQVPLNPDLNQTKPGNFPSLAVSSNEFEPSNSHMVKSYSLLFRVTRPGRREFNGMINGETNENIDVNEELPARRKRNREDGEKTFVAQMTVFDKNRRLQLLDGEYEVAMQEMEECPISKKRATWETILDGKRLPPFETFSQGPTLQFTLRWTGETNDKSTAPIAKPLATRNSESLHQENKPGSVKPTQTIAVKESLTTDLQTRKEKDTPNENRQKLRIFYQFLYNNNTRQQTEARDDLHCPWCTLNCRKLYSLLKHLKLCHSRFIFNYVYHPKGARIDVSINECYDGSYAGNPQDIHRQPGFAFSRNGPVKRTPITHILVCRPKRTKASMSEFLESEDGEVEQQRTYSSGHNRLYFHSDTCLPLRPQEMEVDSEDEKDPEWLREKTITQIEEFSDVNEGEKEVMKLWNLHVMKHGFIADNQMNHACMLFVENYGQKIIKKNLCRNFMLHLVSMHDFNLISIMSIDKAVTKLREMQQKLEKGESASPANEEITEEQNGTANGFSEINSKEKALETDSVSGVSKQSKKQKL

Y641N EZH2 = Y641N EZH2 (Homo sapiens, UniProt Q15910, Y641N); experiment: Y641N EZH2 assay: as EZH2 assay, with reconstituted H3K27Me2 oligonucleosomes as substrate; format: biochemical
Chain of Y641N EZH2 (Q15910 whole entry Y641N): as the sequence (Q15910 whole entry) above, with Y641N counted along it
Chain of Y641N EZH2 (O75530 whole entry partner): as the sequence (O75530 whole entry partner) above
Chain of Y641N EZH2 (Q15022 whole entry partner): as the sequence (Q15022 whole entry partner) above

[1] = test system: H3K27me3 mark in HeLa cells; experiment: H3K27me3 MSD Hela Assay; format: cell-based
Experimental: Trypsinized HeLa cells were counted and diluted in 10% DMEM (Life Technologies, Cat. #10569) to 5000 cells/75 μL. Seventy-five […] of cells were place in each well of a 96-well flat-bottomed plate and incubated at 37° C. for 4 hours. Twenty-five μL of test compound (at various concentrations) was added to the cells and incubation continued at 37° C. for 96 hours. Media was then removed and the cells rinsed once with ice cold PBS. Forty μL of ice-cold MSD Buffer AT (10 mM HEPES, pH 7.9, 5 mM MgCl2, 0.25M sucrose, Benzonase (1:10000), 1% Triton X-100 supplemented with fresh 1× Protease Inhibitor cocktail and 1 mM 4-(2-Aminoethyl)benzenesulfonyl fluoride hydrochloride (AEBSF)) was added to each well and the plates placed on ice for 30 minutes. Ten μL of 5M NaCl was then added to each well and incubation on ice continued for another 15 minutes. The material in each well was suspended pipetting up and down and then transferred to a new 96 well plate. The emptied wells were rinsed with 150 uL ice-cold 20 mM Tris pH 7.5, 1 mM EDTA, 1 mM EGTA, supplemented with fresh 1× Protease Inhibitor cocktail and 1 mM AEBSF (“NO salt NO detergent buffer) and transferred to the respective wells in the new plate. Three hundred μL of NO Salt NO detergent buffer was then added to each well of lysates and the plates frozen at −80° C.
On the same day, an appropriate number of MSD standard bind 96-well plates were coated with 30 μL/well of total H3 capture antibody (Millipore. Cat #MAB3422) at 1 μg/mL concentration in PBS. The antibody solution was evenly distributed first by tapping gently on the sides of the plates and then by shaking the plates for a few minutes at 1000 rpm. Antibody coated plates were stored at 4° C. overnight.
The next day the lysates are thawed to RT. The antibody coated MSD plates are washed 3× with TBS-T (Tris-buffered saline (Fisher Scientific, Cat #BP2471-1)+0.2% Tween-20). One-hundred fifty μL of 5% Blocker A in TBS-T is added to each well. The wells are covered and shaken on a shaker at RT for one hour. The Blocker A step is repeated a second time. After removing the blocker, 25 μL of cell lysate is transferred into each antibody coated well. The plates are shaken for 2 hours at RT, the lysate removed and the plates again washed with Blocker A in TBS-T. Twenty-five μL of appropriate freshly prepared antibody mix (including both primary and secondary antibodies) is added to each well and the plates shaken for 1 hour at RT.
Both H3 antibodies were obtained from Cell Signalling (Cat #s 4499 and 9733). The goat anti-rabbit antibody was obtained from Meso-Scale Discovery (Cat #R32AB-1).
The antibody mix was then removed and the wells washed with Blocker A. One hundred-fifty μL of freshly prepared 1×MSD Read Buffer (Meso-Scale Discovery; Cat #R927C-2) was then added to each well and the plates read on a MSD Sector 2400 Plate Reader.
Data was analyzed using Assay Assistant (Constellation Pharmaceuticals In-house product) and Activity Base (IDBS Ltd, Surrey, UK) template. Data files were imported to Assay Assistant and assay conditions were specified. A unique Analysis ID was created and the data files exported to Activity Base. An analysis template was created on Activity Base to measure dose-dependent inhibition of H3K27me3 mark and cell viability respectively. Readout of DMSO wells were used to normalize the data. Resulting curves were fitted using Activity base software Model 205 (IDBS Ltd. Surrey, UK). The data was checked for quality, validated and integrated in excel format using SARview (IDBS Ltd, Surrey, UK).

[2] = EZH2 IC50, wild-type EZH2 (rPRC2)
[3] = Y641N EZH2 IC50, Y641N mutant EZH2, H3K27Me2 oligonucleosome substrate
[4] = Homo sapiens, HeLa, 96 h, read-out: H3K27me3_MSD_HeLa_ (EC50)
[5] = wild-type EZH2 (rPRC2), read-out: EZH2 IC50
[6] = Y641N mutant EZH2, H3K27Me2 oligonucleosome substrate
[7] = Y641N mutant EZH2, H3K27Me2 oligonucleosome substrate, read-out: Y641N EZH2 IC50

COc1cc(C(C)n2c(C)c(C(=O)NCc3c(C)cc(C)[nH]c3=O)c3cccnc32)ccn1 (racemic) [Compound 207, (±)-N-((4,6-dimethyl-2-oxo-1,2-dihydropyridin-3-yl)methyl)-1-(1-(2-methoxypyridin-4-yl)ethyl)-2-methyl-1H-pyrrolo[2,3-b]pyridine-3-carboxamide]
IC50 (EZH2 (rPRC2); [2]): < 100 nM
IC50 (Y641N EZH2; [3]): 100 to 1000 nM
EC50 [1, 4]: 2000 to 10000 nM

CCC(C)n1c(C)c(C(=O)NCc2c(C)cc(C)nc2O)c2ccccc21 (stereo not shown) [Compound 123, 1-sec-butyl-N-((2-hydroxy-4,6-dimethylpyridin-3-yl)methyl)-2-methyl-1H-indole-3-carboxamide]
EC50 [1, 4]: 400 to 2000 nM

Cc1cc(C)c(CNC(=O)c2c(C)n(C(C)c3ccccc3)c3ccccc23)c(O)n1 (single isomer, unassigned) [Compound 137, (R or S)—N-((2-hydroxy-4,6-dimethylpyridin-3-yl)methyl) 2-methyl-1-1-phenylethyl) 1H-indole-3-carboxamide]
EC50 ([1]; HeLa cells, MSD, 96 hours; read-out: H3K27me3_MSD_HeLa_ (EC50)): 400 to 2000 nM

CCC(C)n1c(C)c(C(=O)NCc2c(C)cc(C)nc2O)c2ccccc21 (single isomer, unassigned) [Compound 147, (R or S)-1-sec-butyl-N-((2-hydroxy-4,6-dimethylpyridin-3-yl)methyl)-2-methyl-1H-indole-3-carboxamide]
EC50 [1, 4]: 400 to 2000 nM

COCC(C)n1c(C)c(C(=O)NCc2c(C)cc(C)[nH]c2=O)c2ccccc21 (single isomer, unassigned; peak 2) [Compound 218, (R or S)-N-((4,6-dimethyl-2-oxo-1,2-dihydropyridin-3-yl)methyl)-1-(1-methoxypropan-2-yl)-2-methyl-1H-indole-3-carboxamide-PEAK 2]
EC50 [1, 4]: < 400 nM

COc1cc(C)[nH]c(=O)c1CNC(=O)c1c(C)n(C(C)C2CCC(F)(F)CC2)c2ncncc12 (racemic) [Compound 334, (±)-7-(1-(4,4-difluorocyclohexyl)ethyl)-N-((4-methoxy-6-methyl-2-oxo-1,2-dihydropyridin-3-yl)methyl)-6-methyl-7H-pyrrolo[2,3-d]pyrimidine-5-carboxamide]
IC50 (EZH2 (rPRC2); [2]): < 100 nM
IC50 (Y641N EZH2; [3]): 100 to 1000 nM

COc1cc(C)[nH]c(=O)c1CNC(=O)c1c(C)n(C(=O)C2CCOCC2)c2ccccc12 [Compound 372, N-((4-methoxy-6-methyl-2-oxo-1,2-dihydropyridin-3-yl)methyl)-2-methyl-1-(tetrahydro-2H-pyran-4-carbonyl)-1H-indole-3-carboxamide]
IC50 (EZH2 (rPRC2); [5]): 100 to 1000 nM
Y641N EZH2 IC50 (Y641N EZH2; [6]): *(0.5 uM)

COc1cc(C)[nH]c(=O)c1CNC(=O)c1c(C)n(C(C)c2ccccc2)c2cnccc12 (single isomer, unassigned) [Compound 259, (R or S)-N-((4-methoxy-6-methyl-2-oxo-1,2-dihydropyridin-3-yl)rnethyl)-2-methyl-1-(1-phenylethyl)-1H-pyrrolo[2,3-c]pyridine-3-carboxamide]
IC50 (EZH2 (rPRC2); read-out: EZH2 IC50, wild-type EZH2 (rPRC2)): < 100 nM
EC50 ([1]; read-out: H3K27me3_MSD_HeLa_ (EC50); HeLa cells, MSD, 96 hours): 400 to 2000 nM

Cc1cc(C)c(CNC(=O)c2c(-c3ccccc3)n(C(C)c3ccccc3)c3ccccc23)c(O)n1 (single isomer, unassigned) [Compound 445, (R or S)-N-((2-hydroxy-4,6-dimethylpyridin-3-yl)methyl)-2-phenyl-1-(1-phenylethyl)-1H-indole-3-carboxamide]
EZH2 IC50 (EZH2 (rPRC2); wild-type EZH2 (rPRC2)): *(10 uM)
Y641N EZH2 IC50 (Y641N EZH2; [6]): *(10 uM)

COc1cc(C)[nH]c(=O)c1CNC(=O)c1c(C)n(C(=O)CC(C)C)c2ccccc12 [Compound 329, N-((4-methoxy-6-methyl-2-oxo-1,2-dihydropyridin-3-yl)methyl)-2-methyl-1-(3-methylbutanoyl)-1H-indole-3-carboxamide]
IC50 (EZH2 (rPRC2); [5]): 100 to 1000 nM
IC50 (Y641N EZH2; [7]): 100 to 1000 nM

Cc1cc(C)c(CNC(=O)c2c(C)n(C(=O)c3ccccc3)c3ccccc23)c(O)n1 [Compound 150, 1-benzoyl-N-((2-hydroxy-4,6-dimethylpyridin-3-yl)methyl)-2-methyl-1H-indole-3-carboxamide]
IC50 (EZH2 (rPRC2); [5]): 100 to 1000 nM
IC50 (Y641N EZH2; [7]): 100 to 1000 nM

COc1cc(C)[nH]c(=O)c1CNC(=O)c1c(C)n([C@@H](C)c2ccccc2)c2ncccc12 [Compound 276, (S)-N-((4-methoxy-6-methyl-2-oxo-1,2-dihydropyridin-3-yl)methyl)-2-methyl-1-(1-phenylethyl)-1H-pyrrolo[2,3-b]pyridine-3-carboxamide]
IC50 (EZH2 (rPRC2); [2]): < 100 nM
IC50 (Y641N EZH2; [3]): < 100 nM

Cc1cc(C)c(CNC(=O)c2c(C)n([C@H](C)c3ccccc3)c3nc(C(C)C)ncc23)c(O)n1 [Compound 177, (R)-N-((2-hydroxy-4,6-dimethylpyridin-3-yl)methyl)-2-isopropyl-6-methyl-7-(1-phenylethyl)-7H-pyrrolo[2,3-d]pyrimidine-5-carboxamide]
IC50 (EZH2 (rPRC2); [2]): < 100 nM
IC50 (Y641N EZH2; [3]): 100 to 1000 nM

COc1cc(C)[nH]c(=O)c1CNC(=O)c1c(C)n(C(C)C2COCCO2)c2ccccc12 (stereo not shown) [Compound 348, 1-(1-(1,4-dioxan-2-yl)ethyl)-N-((4-methoxy-6-methyl-2-oxo-1,2-dihydropyridin-3-yl)methyl)-2-methyl-1H-indole-3-carboxamide]
IC50 (EZH2 (rPRC2); [2]): < 100 nM
IC50 (Y641N EZH2; [3]): < 100 nM

Cc1cc(C)c(CNC(=O)c2c(C)n(C(C)c3ccccc3)c3cnccc23)c(=O)[nH]1 (single isomer, unassigned) [Compound 247, (R or S)—N-((4,6-dimethyl-2-oxo-1,2-dihydropyridin-3-yl)methyl)-2-methyl-1-(1-phenylethyl)-1H-pyrrolo[2,3-c]pyridine-3-carboxamide]
IC50 (EZH2 (rPRC2); [2]): < 100 nM
IC50 (Y641N EZH2; [3]): < 100 nM

COc1cc(C)[nH]c(=O)c1CNC(=O)c1c(C)n(C(C)C(C)OC)c2cc(S(C)(=O)=O)ccc12 (stereo not shown) [Compound 323, N-((4-methoxy-6-methyl-2-oxo-1,2-dihydropyridin-3-yl)methyl)-1-(3-methoxybutan-2-yl)-2-methyl-6-(methylsulfonyl)-1H-indole-3-carboxamide]
IC50 (EZH2 (rPRC2); [2]): < 100 nM
IC50 (Y641N EZH2; [3]): 100 to 1000 nM

Cc1cc(C)c(CNC(=O)c2c(C)n(Cc3ccccc3)c3ccccc23)c(O)n1 [Compound 119, 1-benzyl-N-((2-hydroxy-4,6-dimethylpyridin-3-yl)methyl)-2-methyl-1H-indole-3-carboxamide]
IC50 (EZH2 (rPRC2); [2]): < 100 nM
IC50 (Y641N EZH2; [3]): 100 to 1000 nM

Cc1cc(C)c(CNC(=O)c2cnn(CCc3ccccc3)c2C)c(O)n1 [Compound 110, N-((2-hydroxy-4,6-dimethylpyridin-3-yl)methyl)-5-methyl-1-phenethyl-1H-pyrazole-4-carboxamide]
EZH2 IC50 (EZH2 (rPRC2); wild-type EZH2 (rPRC2)): *(10 μM)
Y641N EZH2 IC50 (Y641N EZH2; [6]): *(10 μM)

Cc1cc(C)c(COC(=O)c2c(C)n(C3CCOC3)c3ncccc23)c(=O)[nH]1 (racemic) [Compound 202, (±)-(4,6-dimethyl-2-oxo-1,2-dihydropyridin-3-yl)methyl 2-methyl-1-(tetrahydrofuran-3-yl)-1H-pyrrolo[2,3-b]pyridine-3-carboxylate]
IC50 (EZH2 (rPRC2); [2]): 100 to 1000 nM
IC50 (Y641N EZH2; [3]): 1000 to 10000 nM

COc1cc(C)[nH]c(=O)c1CNC(=O)c1c(C)n(C(C)COc2ccccn2)c2ncccc12 (racemic) [Compound 251, (±)-N-((4-methoxy-6-methyl-2-oxo-1,2-dihydropyridin-3-yl)methyl)-2-methyl-1-(1-(pyridine-2-yloxy)propan-2-yl)-1H-pyrrolo[2,3-b]pyridine-3-carboxamide]
IC50 (EZH2 (rPRC2); [5]): 100 to 1000 nM
IC50 (Y641N EZH2; [7]): 100 to 1000 nM
